Data reported in patent publication US11427605B2, “Crystalline forms of 5-chloro-N4-[-2-(dimethylphosphoryl) phenyl]-N2-{2-methoxy-4-[4-(4-methylpiperazin-1-yl) piperidin-1-yl] phenyl} pyrimidine-2,4-diamine” (ARIAD Pharmaceuticals, Inc., priority 2014, dated 2022).
Values after ≈ are worked out from the molar mass of the structure shown. Values joined by “and” are separate entries in the source; they are usually repeats but may differ in a detail not shown here. Identical values can stand only once.

Tests used:
Assay type in all cases: physicochemical
[1] = Quantitative solubility testing, set of 24 solvents (HPLC); conditions: for solubility at 24 h: 20 °C
Description: Quantitative solubility testing was performed on brigatinib starting material, employing a set of 24 solvents (DMSO, heptane and water were performed in triplicate). In a vial, about 40 mg of starting material, 400 μL of solvent and a stir bar were added. After stirring for 24 h at 20° C. […], the liquid was retrieved, filtered, and analyzed for API content by HPLC.

[2] = Vapor diffusion into solution experiments; conditions: solvent Cis-Decahydronaphthalene, anti-solvent vapor MethylCyclohexane, room temperature, two weeks; dry
Description: For the vapor diffusion into solution experiments, saturated solutions of brigatinib were exposed to anti-solvent vapors at room temperature for two weeks. An aliquot of saturated solution was transferred to a vial which was left open and placed in a closed container with anti solvent (see Table 20). After two weeks, the samples were evaluated for solid formation. Where solids were present, the liquids were separated from the solids, which were then dried at full vacuum. In the cases where no precipitation was observed, the solvents were placed overnight at 5° C. to promote precipitation. If no solids were present, the liquids were evaporated at 200 mbar for 75 hours, or, if still no solids were present, the liquids were further evaporated at 10 mbar for a maximum of 10 days. All obtained solids were analyzed dry by XRPD and digital imaging.

[3] = Freeze-drying feasibility study; conditions: organic solvent or mixture, thermodynamic from solid, data obtained from freeze drying experiment
Description: Freeze-drying. Six freeze-drying experiments were performed with samples of Form A as described in Table 10. Samples 1, 2, and 4 remained mostly crystalline, but samples 3 and 5 were amorphous and contained about 15-16% residual solvent. Sample 6 was amorphous and contained about 7% residual solvent. Forms E and F were produced using this method. However, due to the variable form and solvation, freeze-drying was not further employed to obtain amorphous brigatinib.

[4] = Slurry experiments at 20° C. and 40° C.; conditions: slurry 40° C., Chloroform; the solids dissolved after 14 days
Description: A total of 68 slurry experiments were performed with brigatinib both at room temperature (20° C.) and 40° C., using 34 solvents. In all cases, a solvent volume of 250 μL was used. The slurries were stirred for two weeks. At the end of the slurry time, the vials were centrifuged and solids and mother liquids separated. The solids were analyzed wet and dry by XRPD and digital imaging. The measuring plates were then stored at ambient conditions for 3-4 weeks and another XRPD was obtained of the solid, any form change is shown by an arrow.

[5] = Crash crystallization with anti-solvent addition
Description: In the crash-crystallization experiments, 34 different crystallization conditions were applied, using 6 different solvents and 24 different anti-solvents (see Table 17). The anti-solvent addition experiments were performed forward. For each solvent, a stock solution was prepared, the concentration of brigatinib in each case being that attained at saturation at ambient temperature after equilibration for 24 hours before filtering.
For each experiment, the anti-solvent was added to each solvent vial, with a solvent to anti-solvent ratio of 1:0.25. In the cases where no precipitation occurred, this ratio was increased to 1:1, and if again no precipitation occurred the ratio was increased to 1:4, with a waiting time of 60 minutes between the additions (up to the third addition) and 35 minutes between the third addition and fourth addition. When no crystallization occurred or not enough solids precipitated for separation, samples were kept at 5° C. for 17 hours. The precipitated solids were separated from the liquids by centrifugation and decantation. When decantation could not be applied, the liquid was carefully removed using Pasteur's pipettes. The solids were dried at 200 mbar for 17 hours and analyzed by XRPD and digital imaging. In the cases where no precipitation occurred, the solvents were evaporated at 200 mbar for 17 hours prior to lowering the vacuum to 5 mbar. All obtained solids were analyzed by XRPD and digital imaging. The measuring plates containing the final solid were stored at ambient temperature for 5 weeks. The solid form was assessed again by XRPD. The arrows in Table 18 indicate if the form changed during storage.

[6] = Thermocycling experiments; conditions: thermocycling 5-40° C., 8 cycles
Description: A total of 33 slurries and 1 solution (chloroform) of starting material in solvents were prepared at room temperature. The mixtures were placed in a Crystal16™ to undergo the following temperature profile:
1. Heating at a rate of 5° C./h until reaching 40° C., with stirring (500 rpm)
2. Cooling at a rate of 5° C./h until 5° C., with stirring (200 rpm)
3. Aging for 30 min at 5° C.
After completion of the cycling program, the solids were separated from the mother liquids by centrifugation, dried under 200 mbar for 48 hours (2-ethoxyethanol for 283 hours) and analyzed by XRPD and digital imaging. For the applied crystallization conditions and corresponding obtained solid forms, see Table 24. Solid form (or mixture) following the arrow (→) was obtained upon remeasurement by XRPD after storage of the measuring plates at ambient conditions for 5 weeks.

solubility at 24 h ([1]; 1,2-dichloroethane, organic solvent or mixture, thermodynamic from solid, 1,2-Dichloroethane): 38300 µg/mL (≈ 65600 µM)
solubility at 24 h ([1]; 1,2-dimethoxyethane, organic solvent or mixture, thermodynamic from solid, 1,2-Dimethoxyethane): 1130 µg/mL (≈ 1930 µM)
solubility at 24 h ([1]; 1,4-dioxane, organic solvent or mixture, thermodynamic from solid, 1,4-Dioxane): 4010 µg/mL (≈ 6870 µM)
solubility at 24 h ([1]; 1-butanol, organic solvent or mixture, thermodynamic from solid): 17700 µg/mL (≈ 30400 µM)
solubility at 24 h ([1]; 2-butanone, organic solvent or mixture, thermodynamic from solid): 1110 µg/mL (≈ 1900 µM)
solubility ([1]; Dimethyl Sulfoxide, 20° C., 24 h, triplicate): 3.02 mg/mL and 3.05 mg/mL
solubility ([1]; Ethyl Formate, 20° C., 24 h): 0.99 mg/mL (≈ 1690 µM)
solubility at 24 h ([1]; N,N-dimethylacetamide, organic solvent or mixture, thermodynamic from solid): 470 µg/mL (≈ 805 µM)
solubility at 24 h ([1]; acetone, organic solvent or mixture, thermodynamic from solid): 690 µg/mL (≈ 1180 µM)
solubility at 24 h ([1]; acetonitrile, organic solvent or mixture, thermodynamic from solid): 360 µg/mL (≈ 616 µM)
solubility at 24 h ([1]; butyl acetate, organic solvent or mixture, thermodynamic from solid): 320 µg/mL (≈ 548 µM)
solubility at 24 h ([1]; chloroform, organic solvent or mixture, thermodynamic from solid, sample dissolved, no solids harvested): > 182000 µg/mL
solubility at 24 h ([1]; cyclohexane, organic solvent or mixture, thermodynamic from solid, UR = under range): < 10 µg/mL
solubility at 24 h ([1]; dichloromethane, organic solvent or mixture, thermodynamic from solid, sample dissolved, no solids harvested): > 197000 µg/mL
solubility at 24 h ([1]; dimethyl sulfoxide, organic solvent or mixture, thermodynamic from solid, triplicate): 2950 µg/mL (≈ 5050 µM)
solubility at 24 h ([1]; ethanol, organic solvent or mixture, thermodynamic from solid): 6710 µg/mL (≈ 11500 µM)
solubility at 24 h ([1]; ethyl acetate, organic solvent or mixture, thermodynamic from solid): 420 µg/mL (≈ 719 µM)
solubility at 24 h ([1]; isopropanol, organic solvent or mixture, thermodynamic from solid): 1550 µg/mL (≈ 2650 µM)
solubility at 24 h ([1]; isopropyl acetate, organic solvent or mixture, thermodynamic from solid, UR = under range): < 10 µg/mL
solubility at 24 h ([1]; methanol, organic solvent or mixture, thermodynamic from solid): 35300 µg/mL (≈ 60500 µM)
solubility at 24 h ([1]; n-heptane, organic solvent or mixture, thermodynamic from solid, triplicate, UR = under range): < 10 µg/mL
solubility at 24 h ([1]; nitromethane, organic solvent or mixture, thermodynamic from solid): 410 µg/mL (≈ 702 µM)
solubility at 24 h ([1]; p-xylene, organic solvent or mixture, thermodynamic from solid): 350 µg/mL (≈ 599 µM)
Residual solids after solubility testing, form by XRPD ([1]; set of 24 solvents, 20° C., 24 h): Form A
solubility at 24 h ([1]; tetrahydrofuran, organic solvent or mixture, thermodynamic from solid, UR = under range): < 10 µg/mL
solubility at 24 h ([1]; water, thermodynamic from solid, triplicate): 90 µg/mL (≈ 154 µM)
Form (XRPD) [2]: Am
solubility ([3]; 2,2,2-trifluoroethanol/water (80:20)): > 159 mg/mL
solubility ([3]; 2,2,2-trifluoroethanol/water (90:10)): > 172 mg/mL
solubility ([3]; 2,2,2-trifluoroethanol): > 224 mg/mL
Form dry (XRPD) [4]: A + E
Form (XRPD) ([5]; solvent 1,4-Dioxane, anti-solvent Water, S:AS 1:4, no precipitation): A + H
Form (XRPD) ([5]; solvent Chloroform, anti-solvent tert-Butyl methyl ether, S:AS 1:4, precipitation, wet): A + G
Form (XRPD) ([5]; solvent Ethanol, anti-solvent Water, S:AS 1:4, no precipitation): A + H
Form mother liquid (XRPD) ([6]; Chloroform): A + G
Form mother liquid (XRPD) ([6]; n-Heptane): A + L
SMILES: COc1cc(N2CCC(N3CCN(C)CC3)CC2)ccc1Nc1ncc(Cl)c(Nc2ccccc2P(C)(C)=O)n1 [Brigatinib]
